Test results as given in US7091185B2, “Periodic antimicrobial peptides” (Dow Global Technologies Inc., priority 2003, dated 2006).
Like-named read-outs stand apart in the source and are kept apart here. Where no end group is shown, it is not given here.

How the values were obtained:
[1] = system: S. aureus (methicillin resistant) ATCC 33591
C. albicans 10231 = format: cell-based
Procedure, shortened: (§1)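 Broth microdilution per NCCLS, adapted for fungi with Sabouraud Dextrose Broth; KFAK-repeat peptide multimers in two-fold dilutions from 1,000 to 1 μg/ml. Growth by OD620 after overnight incubation; IC50 by sigmoidal fit, in duplicate, repeated at least twice.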

Cr. Neoformans 32045 = format: cell-based
Procedure, shortened: as §1

Red blood cell toxicity = format: cell-based; conditions: red blood cells (RBC); RBCs; concentration required for 50% toxicity; read-out: TX50
Red blood cells (RBC) = test: Red blood cell toxicity; format: cell-based
HeLa cell line = test: HeLa MTS cellular reduction toxicity assay; format: cell-based; conditions: for TX50: 24 h, MTS
Procedure: The RBC protocol was from Blondelle (2000) and is described generally as follows: The toxicity toward the HeLa cell line was determined using a MTS (3-(4-5-dimethylthiazol-2-yl)-5-(3carboxymethoxyphenyl)-2-(4-sulfophenyl)-2H-tetrazolium, sodium salt) cellular reduction assay. MTS (2 mg/mL) was prepared in Dulbecco PBS (pH 7.35), filtered, aliquoted and stored at minus 20° C. In 96 well flat bottomed plates, cell suspensions (250 μL of 6×10^4 cell/mL in each well) were incubated for 48 h at 37° C. (5% CO2 incubator). The peptides (50 μL) were then added to the cell monolayer (following aspiration of the media from each well and addition of 50 μL of Dulbecco's Modified Eagles Medium) at varying concentrations derived from serial 2-fold dilutions, and the plates incubated for 24 h at 37° C. (5% CO2 incubator). Proliferation was then determined by adding a solution of phenazine methosulfate (PMS: 0.92 mg/mL in DPBS) to MTS at a 1:20 ration just prior to the assay. Twenty microliters MTS-PMS solution were added to each well and the plates incubated for 1 h at 37° C. (5% CO2 incubator). The relative percent toxicity was determined by comparing the absorbance at 490 nm of each peptide to the absorbance of cells without peptide. The TX50 (concentration required for 50% toxicity) was calculated using a sigmoidal curve fitting software (Graphpad Prism).

P. aeruginosa ATCC 15442 = test: HMARQ biocidal kill activity; format: cell-based; conditions: P. aeruginosa ATCC 15442 (gram−)
Procedure, shortened: (§2)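 Values are biocide ppm (μg/mL) needed for 3.5 log reduction relative to untreated controls after 15 min or 24 h exposure. Organisms were added to biocide-containing sample matrix (200–300 μL, mixed by vortex), then enumerated by most-probable-number 1:10 dilution series in TSB/resazurin.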

Staph. aureus ATCC 6538 = test: HMARQ biocidal kill activity; format: cell-based; conditions: Staph. aureus ATCC 6538 (gram+)
Procedure, shortened: as §2

[2] = Table 3, P aeruginosa 10145, gram−
[3] = S. aureus (methicillin resistant) 33591, gram+

## H-RFARRFARRFARRFARRFARRFAR-OH [RFAR (6), RFAR RFAR RFAR RFAR RFAR RFAR]
E. coli ATCC 2592; ATCC 2592
  IC50: 12 µg/mL
  MIC: 31 to 62 µg/mL
P. aeruginosa ATCC 10145; ATCC 10145
  IC50: 25 µg/mL
  MIC: 32 µg/mL
[1]; ATCC 33591
  IC50: 15 µg/mL
  MIC: 31 to 62 µg/mL
C. albicans 10231; 10231
  IC50: 114 µg/mL
  MIC: 125 to 250 µg/mL
Cr. Neoformans 32045
  IC50: 35 µg/mL
  MIC: 62 to 125 µg/mL
Red blood cell toxicity
  HC50 at 24 h: 176 µg/mL
Red blood cells (RBC)
  % kill at 250 μg/ml: 72%
HeLa cell line
  % kill at 500 μg/ml: 22.1%
  TX50: 159 µg/mL
P. aeruginosa ATCC 15442
  ppm needed for 3.5 log kill at 15 min: 31 ppm
  ppm needed for 3.5 log kill at 24 hr: 31 ppm
Staph. aureus ATCC 6538
  ppm needed for 3.5 log kill at 15 min: >500 ppm
  ppm needed for 3.5 log kill at 24 hr: 8 ppm

## KAAKKAAKKAAKKAAKKAAKKAAKKAAK [KAAK (7), KAAK KAAK KAAK KAAK KAAK KAAK KAAK]
E. coli ATCC 2592; ATCC 2592
  IC50: 261 µg/mL
P. aeruginosa ATCC 10145; ATCC 10145
  IC50: >250 µg/mL
  MIC: >250 µg/mL
[1]; ATCC 33591
  IC50: >500 µg/mL
  MIC: >500 µg/mL
C. albicans 10231; 10231
  IC50: 262 µg/mL
  MIC: >500 µg/mL
Cr. Neoformans 32045
  IC50: 41 µg/mL
  MIC: 62 to 125 µg/mL
Red blood cell toxicity
  HC50 at 24 h: > 500 µg/mL
Red blood cells (RBC)
  % kill at 250 μg/ml: −6%
HeLa cell line
  % kill at 500 μg/ml: 90.0%
  TX50: >500 µg/mL
P. aeruginosa ATCC 15442
  ppm needed for 3.5 log kill at 15 min: >500 ppm
  ppm needed for 3.5 log kill at 24 hr: 125 ppm
Staph. aureus ATCC 6538
  ppm needed for 3.5 log kill at 15 min: >500 ppm
  ppm needed for 3.5 log kill at 24 hr: 250 ppm

## KFAFKFAFKFAFKFAFKFAFKFAFKFAF [KFAF (7), KFAF KFAF KFAF KFAF KFAF KFAF KFAF]
E. coli ATCC 2592; ATCC 2592
  IC50: >1000 µg/mL
  MIC: >1000 µg/mL
P. aeruginosa ATCC 10145; ATCC 10145
  IC50: 250 µg/mL
  MIC: >250 µg/mL
[1]; ATCC 33591
  IC50: >500 µg/mL
  MIC: >500 µg/mL
C. albicans 10231; 10231
  IC50: >500 µg/mL
  MIC: >500 µg/mL
Cr. Neoformans 32045
  IC50: 67 µg/mL
  MIC: 125 to 250 µg/mL
Red blood cell toxicity
  HC50 at 24 h: > 500 µg/mL
Red blood cells (RBC)
  % kill at 250 μg/ml: 4%
HeLa cell line
  % kill at 500 μg/ml: 76.8%
  TX50: >500 µg/mL
P. aeruginosa ATCC 15442
  ppm needed for 3.5 log kill at 15 min: 63 ppm
  ppm needed for 3.5 log kill at 24 hr: 63 ppm
Staph. aureus ATCC 6538
  ppm needed for 3.5 log kill at 15 min: >500 ppm
  ppm needed for 3.5 log kill at 24 hr: 125 ppm

## KFFKKFFKKFFKKFFKKFFKKFFKKFFK [KFFK (7), KFFK KFFK KFFK KFFK KFFK KFFK KFFK]
E. coli ATCC 2592; E. coli 2592, gram−
  IC50: 63 µg/mL
  MIC: >125 µg/mL
P. aeruginosa ATCC 10145; [2]
  IC50: 87 µg/mL
  MIC: 125 µg/mL
[1]; [3]
  IC50: 133 µg/mL
  MIC: >250 µg/mL
C. albicans 10231; yeast C. albicans 10231
  IC50: 183 µg/mL
  MIC: 250 to 500 µg/mL
Cr. Neoformans 32045; fungus Cr. Neoformans 32045
  IC50: 55 µg/mL
  MIC: 62 to 125 µg/mL
Red blood cell toxicity
  HC50 at 24 h: 12 µg/mL
Red blood cells (RBC); RBCs, 250 μg/ml
  % kill at 250 μg/ml: 100%
HeLa cell line
  % kill at 500 μg/ml: −0.5%
  TX50: 30 µg/mL
P. aeruginosa ATCC 15442
  ppm needed for 3.5 log kill at 15 min: 16 ppm
  ppm needed for 3.5 log kill at 24 hr: 8 ppm
Staph. aureus ATCC 6538
  ppm needed for 3.5 log kill at 15 min: 4 ppm
  ppm needed for 3.5 log kill at 24 hr: 63 ppm

## KFKKFKKFKKFKKFKKFK [KFK (6), KFK KFK KFK KFK KFK KFK]
E. coli ATCC 2592; ATCC 2592
  IC50: 39 µg/mL
  MIC: 62 to 125 µg/mL
P. aeruginosa ATCC 10145; ATCC 10145
  IC50: 74 µg/mL
  MIC: 125 µg/mL
[1]; ATCC 33591
  IC50: 322 µg/mL
  MIC: >500 µg/mL
C. albicans 10231; 10231
  IC50: 164 µg/mL
  MIC: 250 to 500 µg/mL
Cr. Neoformans 32045
  IC50: 33 µg/mL
  MIC: 40 to 62 µg/mL
Red blood cell toxicity
  HC50 at 24 h: > 500 µg/mL
Red blood cells (RBC)
  % kill at 250 μg/ml: −7%
HeLa cell line
  % kill at 500 μg/ml: 77.8%
  TX50: >500 µg/mL
P. aeruginosa ATCC 15442
  ppm needed for 3.5 log kill at 15 min: >500 ppm
  ppm needed for 3.5 log kill at 24 hr: 125 ppm
Staph. aureus ATCC 6538
  ppm needed for 3.5 log kill at 15 min: >500 ppm

## KFKKFKKFKKFKKFKKFKKFK [KFK (7), KFK KFK KFK KFK KFK KFK KFK]
E. coli ATCC 2592; ATCC 2592
  IC50: 18 µg/mL
  MIC: 31 to 62 µg/mL
P. aeruginosa ATCC 10145; ATCC 10145
  IC50: 87 µg/mL
  MIC: 125 µg/mL
[1]; ATCC 33591
  IC50: 141 µg/mL
  MIC: >500 µg/mL
C. albicans 10231; 10231
  IC50: 175 µg/mL
  MIC: 250 to 500 µg/mL
Cr. Neoformans 32045
  IC50: 26 µg/mL
  MIC: 40 to 62 µg/mL
Red blood cell toxicity
  HC50 at 24 h: > 500 µg/mL
Red blood cells (RBC)
  % kill at 250 μg/ml: −7%
HeLa cell line
  % kill at 500 μg/ml: 80.9%
  TX50: >500 µg/mL
P. aeruginosa ATCC 15442
  ppm needed for 3.5 log kill at 15 min: >500 ppm
  ppm needed for 3.5 log kill at 24 hr: 125 ppm
Staph. aureus ATCC 6538
  ppm needed for 3.5 log kill at 15 min: >500 ppm
